From publication PMC7714830, “Quantification of the Cannabinoid Type 1 Receptor Availability in the Mouse Brain” (Frontiers in Neuroanatomy, 2020)
Read-outs that look alike come from different tables or passages of the source.

How the values were obtained:
[1] = test system: CB1 receptor; parameters: method as in Horti et al., 2006; conditions: ref Horti et al., 2006; cited from earlier work
[2] = test system: CB1 receptor; parameters: method as in Herance et al., 2011; conditions: knock-out n = 4, wild-type n = 4; period 40–60 min; ref Herance et al., 2011; cited from earlier work
[3] = test system: CB1 receptor; test: [18F]MK-9470 PET in a CB1 receptor knock-out mouse and a wild-type mouse (re-analysis of the whole time course); assay type: in vivo
Description: (§1) Two mice, a CB1 receptor-deficient mouse, and a wild-type mouse, whose data acquisition is described in Miederer et al. ([2013]), were re-analyzed.
(§2) (A) Left: CB1 receptor knock-out mouse, right: wild-type mouse. Positron emission tomography (PET) images were summed from 40 to 60 min [injected radioactivity: 8.5 MBq (CB1^−/−) and 8.0 MBq (CB1^+/+), anaesthesia: 0.2 ml xylazine/ketamine, data acquisition: 60 min]. (B) Standardized volumes-of-interest (VOI) were drawn for the whole mouse brains (n = 2). Extracted radioactivity concentrations were normalized to the maximum radioactivity concentration in the wild-type mouse.

[4] = biological target: T1, CB1 receptor (Mus musculus, UniProt P47746); test: [18F]MK-9470 small animal PET of the mouse brain (%ID/ml, 40–60 min); assay type: in vivo, mouse (C57BL/6J); parameters: Six male C57BL/6J mice; from tissue; host or cells: brain of living male C57BL/6J mice (in vivo PET); conditions: for [^18F]MK-9470 %ID/ml: PET 40–60 min, mean ± SD
Source text: Six male C57BL/6J mice (21.5–28.1 g, 6–9 weeks of age; obtained from the Translational Animal Research Center—TARC of the University Medical Center Mainz) were examined. All applicable international, national, and/or institutional guidelines for the care and use of animals were followed. This study was approved by the respective state authorities (Landesuntersuchungsamt Rheinland-Pfalz).
Isoflurane inhalation anesthesia (2% isoflurane vaporized in 60% oxygen) was used to immobilize the mice, which were positioned in the small animal PET scanner in the headfirst prone position. A venous catheter, which was placed in one of the tail veins, was used to inject [^18F]MK-9470. Together with the injection, a 60-min PET measurement was started with a Focus 120 small animal PET scanner (Siemens/CTI, Knoxville, TN, USA). This small animal PET scanner has lutetium oxyorthosilicate detectors having a size of 1.5 × 1.5 × 10 mm^3 for coincidence detection of photons (time window: 6 ns). The resolution in the center of the field of view is ≤1.4 mm. As part of the quality control, a detector normalization and cross-calibration with a dose calibrator (VDC 404, Veenstra Instruments, Joure, Netherlands) were performed regularly. The PET data acquisition took place in the list mode data format.
The list-mode data, acquired for this study, were sorted into a sinogram matrix with frames of 3 × 20, 3 × 60, 3 × 120, 10 × 300 s (=19 frames). The data were reconstructed with filtered back-projection [ramp filter (cut-off = 0.5)] into a 128 × 128 matrix with 95 slices of 0.8 mm thickness (pixel size 0.87 × 0.87 mm^2). Corrections included detector dead time and random coincidences, which yielded images in the unit Bq/ml.
PET data were co-registered to the T2-weighted magnetic resonance image (MRI) template provided by the PMOD software (version 4.0, Zurich, Switzerland) based on the work of Ma et al. ([2005]) and Mirrione et al. ([2007]). […] The outcome parameter was calculated as %ID/ml = mean value of the radioactivity concentration (in the unit Bq/ml)/injected radioactivity (in the unit Bq) × 100% and included the 40–60 min acquisition interval for individual brain regions. All results were reported as mean ± standard deviation. A two-tailed paired t-test was used to compare means for VOI of different receptor densities and thus, four main comparisons were defined before the analyses: cerebellum vs. pons, caudate putamen vs. pons, cerebellum vs. hippocampus, and hippocampus vs. pons. The global significance level was αglobal = 0.05 and a Bonferroni correction yielded a local significance level of αlocal = 0.0125.
To facilitate the comparison between (quantitative, continuous) PET data and (qualitative) IHC data, the data were classified into four categories, namely no (−), low (+), mean (++) and high (+++) accumulation of the radioactivity concentration or immunohistochemical staining. The IHC data were classified based on visual inspections of the results and their descriptions in the literature sources. Statements such as “little or no,” “few” or “void” led to a classification of “–.” Statements like “low,” “some” or “weak” were classified as “+.” Descriptions like “network of CB1-immunoreactive fibers” or “intensely CB1 receptor-ir fiber meshwork” led to a rating of “++” and statements like “dense meshwork of fibers” or “very high concentration of CB1-immunoreactivity” were rated as “+++.” The PET data were classified based on the outcome parameter %ID/ml, ranging from mean values of 1.5–2.6 %ID/ml, and were subdivided into three categories. That is, signals within the interval 1.5–1.8 %ID/ml lead to a rating of “+.” Parameters within the interval 1.8–2.2 %ID/ml were rated as “++” and signals within the interval 2.2–2.6 %ID/ml were classified as “+++.” As there was no brain region devoid of a PET signal, the category “−” was omitted here.

[5] = biological target: T1, CB1 receptor; test: [18F]MK-9470 PET in a CB1 receptor knock-out mouse and a wild-type mouse (re-analysis of the whole time course); assay type: in vivo; parameters: Two mice, a CB1 receptor-deficient mouse, and a wild-type mouse; from tissue; host or cells: brain of a living wild-type mouse; the CB1-/- mouse serves as the receptor-free control; conditions: CB1 knock-out vs wild-type mouse
Description: as §1, §2

[6] = test system: CB1 receptor; conditions: cited from earlier work
[7] = parameters: method as in Burns et al., 2007; Liu et al., 2007; conditions: ref Burns et al., 2007, Liu et al.; cited from earlier work
[8] = test system: CB1 receptor; conditions: human brain; ref Burns et al., 2007; cited from earlier work
[9] = biological target: CB1 receptor; parameters: method as in Burns et al., 2007; Liu et al., 2007; conditions: ref Burns et al., 2007, Liu et al., read-out: affinity to the CB1 receptor, IC50; cited from earlier work
[10] = Tectum mesencephalic: colliculus inferior
[11] = Tectum mesencephalic: colliculus superior

T1 sequence (P47746 whole entry): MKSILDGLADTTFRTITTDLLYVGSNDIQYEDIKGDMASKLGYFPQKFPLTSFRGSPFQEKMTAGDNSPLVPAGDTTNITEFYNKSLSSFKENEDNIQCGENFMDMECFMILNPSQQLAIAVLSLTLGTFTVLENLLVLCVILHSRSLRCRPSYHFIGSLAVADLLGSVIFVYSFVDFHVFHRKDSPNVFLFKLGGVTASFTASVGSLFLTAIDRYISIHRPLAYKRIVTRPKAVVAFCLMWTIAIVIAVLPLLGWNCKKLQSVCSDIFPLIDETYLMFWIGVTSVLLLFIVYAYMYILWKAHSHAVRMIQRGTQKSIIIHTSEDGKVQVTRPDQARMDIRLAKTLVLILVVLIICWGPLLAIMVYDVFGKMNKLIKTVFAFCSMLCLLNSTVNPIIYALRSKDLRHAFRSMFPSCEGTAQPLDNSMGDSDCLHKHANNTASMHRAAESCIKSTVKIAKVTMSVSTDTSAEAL

SMILES: [11CH3]Oc1ccc(-c2c(C#N)c(C(=O)NN3CCCCC3)nn2-c2ccc(Cl)cc2Cl)cc1 [[^11C]OMAR, 1–(2,4-dichlorophenyl)-4-cyano-5–(4-[^11C]methoxyphenyl)-N-(piperidin-1-yl)-1H-pyrazole-3-carboxamide]
- %ID/ml values in mouse brain regions [1]: 2.5–6 %ID/ml
- lower uptake in knock-out mice as compared to wild-type mice [2]: 50%

SMILES: Cc1ccc(OC(C)(C)C(=O)N[C@@H](C)[C@@H](Cc2ccc(OCC[18F])cc2)c2cccc(C#N)c2)nc1 [[^18F]MK-9470, N-(1S,2S)-2–(3-cyanophenyl)-3–[4-(2-[^18F]fluoroethoxy)phenyl]-1-methylpropyl-2-methyl-2-[(5-methylpyridin-2-yl)oxy]propanamide]
- level of the unspecific signal in the CB1 receptor knock-out mouse, of the maximum signal measured in the wild-type mice ([3]; whole brain VOI, n = 2): about 20%
- unspecific binding, of the signal present in a wild-type mouse ([3]; whole brain, period of 40–60 min): approximately 20%
- Category of [^18F]MK-9470 accumulation ([4]; Amygdala): ++ (Parameters within the interval 1.8–2.2 %ID/ml were rated as “++”)
- [^18F]MK-9470 %ID/ml ([4]; Amygdala): 1.87 ± 0.38 %ID/ml
- Category of [^18F]MK-9470 accumulation ([4]; Basal forebrain septum): ++ (Parameters within the interval 1.8–2.2 %ID/ml were rated as “++”)
- [^18F]MK-9470 %ID/ml ([4]; Basal forebrain septum): 2.07 ± 0.29 %ID/ml
- Category of [^18F]MK-9470 accumulation ([4]; Basal ganglia: caudate putamen): +++ (signals within the interval 2.2–2.6 %ID/ml were classified as “+++.”)
- [^18F]MK-9470 %ID/ml ([4]; Basal ganglia: caudate putamen): 2.33 ± 0.40 %ID/ml
- Category of [^18F]MK-9470 accumulation ([4]; Brain stem): ++ (Parameters within the interval 1.8–2.2 %ID/ml were rated as “++”)
- [^18F]MK-9470 %ID/ml ([4]; Brain stem): 1.95 ± 0.36 %ID/ml
- Category of [^18F]MK-9470 accumulation ([4]; Cerebellum (whole region)): ++ (Parameters within the interval 1.8–2.2 %ID/ml were rated as “++”)
- [^18F]MK-9470 %ID/ml ([4]; Cerebellum (whole region)): 2.11 ± 0.40 %ID/ml
- Category of [^18F]MK-9470 accumulation ([4]; Cerebral cortex): ++ (Parameters within the interval 1.8–2.2 %ID/ml were rated as “++”)
- [^18F]MK-9470 %ID/ml ([4]; Cerebral cortex): 1.92 ± 0.32 %ID/ml
- Category of [^18F]MK-9470 accumulation ([4]; Hippocampus): +++ (signals within the interval 2.2–2.6 %ID/ml were classified as “+++.”)
- [^18F]MK-9470 %ID/ml ([4]; Hippocampus): 2.29 ± 0.41 %ID/ml
- Category of [^18F]MK-9470 accumulation ([4]; Hypothalamus): ++ (Parameters within the interval 1.8–2.2 %ID/ml were rated as “++”)
- [^18F]MK-9470 %ID/ml ([4]; Hypothalamus): 1.99 ± 0.34 %ID/ml
- Category of [^18F]MK-9470 accumulation ([4]; Mesencephalon (whole region)): +++ (signals within the interval 2.2–2.6 %ID/ml were classified as “+++.”)
- [^18F]MK-9470 %ID/ml ([4]; Mesencephalon (whole region)): 2.41 ± 0.42 %ID/ml
- Category of [^18F]MK-9470 accumulation ([4]; Olfactory bulb): + (signals within the interval 1.5–1.8 %ID/ml lead to a rating of “+.”)
- [^18F]MK-9470 %ID/ml ([4]; Olfactory bulb): 1.47 ± 0.08 %ID/ml
- Category of [^18F]MK-9470 accumulation ([4]; Substantia grisea centralis): +++ (signals within the interval 2.2–2.6 %ID/ml were classified as “+++.”)
- [^18F]MK-9470 %ID/ml ([4]; Substantia grisea centralis (central gray)): 2.56 ± 0.39 %ID/ml
- Category of [^18F]MK-9470 accumulation [4, 10]: +++ (signals within the interval 2.2–2.6 %ID/ml were classified as “+++.”)
- [^18F]MK-9470 %ID/ml [4, 10]: 2.48 ± 0.35 %ID/ml
- Category of [^18F]MK-9470 accumulation [4, 11]: +++ (signals within the interval 2.2–2.6 %ID/ml were classified as “+++.”)
- [^18F]MK-9470 %ID/ml [4, 11]: 2.44 ± 0.37 %ID/ml
- Category of [^18F]MK-9470 accumulation ([4]; Thalamus): +++ (signals within the interval 2.2–2.6 %ID/ml were classified as “+++.”)
- [^18F]MK-9470 %ID/ml ([4]; Thalamus): 2.34 ± 0.35 %ID/ml
- Category of [^18F]MK-9470 accumulation ([4]; Whole-brain): ++ (Parameters within the interval 1.8–2.2 %ID/ml were rated as “++”)
- [^18F]MK-9470 %ID/ml ([4]; Whole-brain): 2.19 ± 0.35 %ID/ml
- range of mean values of %ID/ml over brain regions ([4]; all brain regions, 40–60 min): 1.5–2.6 %ID/ml
- coefficients of variation for all brain regions ([4]; summed images 40–60 min): 5–20%
- kinetics in the mouse brain ([4]; whole brain time course, 60 min): slow kinetics
- time of uptake into the mouse brain after injection ([4]; whole brain, i.v. tail vein): ≤ 5 min
- coefficient of variation of whole-brain radioactivity concentration ([4]; whole brain, interval from maximum to end of acquisition): approximately 12%
- mean value of radioactivity concentration after reaching maximum ([4]; whole mouse brain, from maximum until the end of the acquisition (60 min)): approximately 2.2 %ID/ml
- binding to CB1 receptors in the mouse brain [5]: binds specifically
- time to plateau after injection ([6]; rat brain, ref Casteels et al., 2012): approximately 300 min
- portion of the signal allocated to unspecific binding ([6]; rats, receptor blocking with rimonabant before PET, ref Miederer et al., 2013): 58%
- lipophilicity, logD7.3 [7]: 4.7
- time to plateau after injection [8]: approximately 120 min

SMILES: Cc1ccc(OC(C)(C)C(=O)N[C@@H](C)[C@@H](Cc2ccc(OCCF)cc2)c2cccc(C#N)c2)nc1 [[^18F]MK-9470, N-(1S,2S)-2–(3-cyanophenyl)-3–[4-(2-[^18F]fluoroethoxy)phenyl]-1-methylpropyl-2-methyl-2-[(5-methylpyridin-2-yl)oxy]propanamide]
- IC50 [9]: 0.7 nM
